Test results as given in PMC5218480 (PLoS ONE, 2017).

Test system: MV-4-11 cells
Experiment: Gene expression microarray analysis (Affymetrix PrimeView) and GSEA
Format: cell-based, human
Set-up: RFU PODN (11730768_x_at) / Fold change /veh PODN (11730768_x_at) / RFU LINC00158 (11744669_a_at) / Fold change /veh LINC00158 (11744669_a_at) / RFU DUSP10 (11751237_a_at) / Fold change /veh DUSP10 (11751237_a_at) / RFU ID3 (11757404_x_at) / Fold change /veh ID3 (11757404_x_at) / RFU PLEKHG5 (11737974_s_at) / Fold change /veh PLEKHG5 (11737974_s_at) / RFU LRRC4B (11730491_at) / Fold change /veh LRRC4B (11730491_at) / RFU GIMAP4 (11747438_a_at) / Fold change /veh GIMAP4 (11747438_a_at) / RFU KRT8 (11758183_x_at) / Fold change /veh KRT8 (11758183_x_at) / RFU CNN1 (11734310_a_at) / Fold change /veh CNN1 (11734310_a_at) / RFU VPS37D (11726825_at) / Fold change /veh VPS37D (11726825_at) / RFU C10orf10 (11716522_x_at) / Fold change /veh C10orf10 (11716522_x_at) / RFU KIR2DL2 /// KIR2DL4 /// KIR2DL5A /// KIR2DL5B /// KIR2DS1 /// KIR2DS2 /// KIR2DS3 /// KIR2DS4 /// KIR3DL3 /// KIR3DL3 /// KIR3DS1 (11738374_at) / Fold change /veh KIR2DL2 /// KIR2DL4 /// KIR2DL5A /// KIR2DL5B /// KIR2DS1 /// KIR2DS2 /// KIR2DS3 /// KIR2DS4 /// KIR3DL3 /// KIR3DL3 /// KIR3DS1 (11738374_at) / RFU C1QL1 (11718748_at) / Fold change /veh C1QL1 (11718748_at) / RFU TMPRSS4 (11747572_a_at) / Fold change /veh TMPRSS4 (11747572_a_at) / RFU HAMP (11756126_x_at) / Fold change /veh HAMP (11756126_x_at) / RFU RNFT2 (11725882_a_at) / Fold change /veh RNFT2 (11725882_a_at) / RFU NR4A2 (11747474_a_at) / Fold change /veh NR4A2 (11747474_a_at) / RFU ABCC12 (11746883_a_at) / Fold change /veh ABCC12 (11746883_a_at) / RFU TMEM136 (11760407_x_at) / Fold change /veh TMEM136 (11760407_x_at) / RFU CLDN22 /// WWC2 (11732394_at) / Fold change /veh CLDN22 /// WWC2 (11732394_at) / RFU HLA-DPB1 (11760878_x_at) / Fold change /veh HLA-DPB1 (11760878_x_at) / RFU SPINT1 (11716480_a_at) / Fold change /veh SPINT1 (11716480_a_at) / RFU GAP43 (11754022_s_at) / Fold change /veh GAP43 (11754022_s_at) / RFU A4GNT (11735810_at) / Fold change /veh A4GNT (11735810_at) / RFU PRB3 (11715151_x_at) / Fold change /veh PRB3 (11715151_x_at) / RFU TUBB4B (11761932_at) / Fold change /veh TUBB4B (11761932_at) / RFU CAPN14 (11732068_a_at) / Fold change /veh CAPN14 (11732068_a_at) / RFU TMCC2 (11721928_a_at) / Fold change /veh TMCC2 (11721928_a_at) / RFU IRGQ (11745062_a_at) / Fold change /veh IRGQ (11745062_a_at) / RFU FAM174B (11720279_a_at) / Fold change /veh FAM174B (11720279_a_at) / RFU TMPRSS4 (11748680_a_at) / Fold change /veh TMPRSS4 (11748680_a_at) / RFU FAM212B (11763350_a_at) / Fold change /veh FAM212B (11763350_a_at) / RFU PLEKHG5 (11743358_a_at) / Fold change /veh PLEKHG5 (11743358_a_at) / RFU ZSCAN30 (11745921_a_at) / Fold change /veh ZSCAN30 (11745921_a_at) / RFU CMKLR1 (11741424_a_at) / Fold change /veh CMKLR1 (11741424_a_at) / RFU LOC101060620 /// MAPK8IP1 (11723275_at) / Fold change /veh LOC101060620 /// MAPK8IP1 (11723275_at) / RFU SPTSSB (11747773_x_at) / Fold change /veh SPTSSB (11747773_x_at) / RFU PRSS12 (11739890_at) / Fold change /veh PRSS12 (11739890_at) / RFU BIN1 (11741810_x_at) / Fold change /veh BIN1 (11741810_x_at) / RFU WNT11 (11732464_a_at) / Fold change /veh WNT11 (11732464_a_at) / RFU C10orf10 (11716521_a_at) / Fold change /veh C10orf10 (11716521_a_at) / RFU C5orf56 (11738089_at) / Fold change /veh C5orf56 (11738089_at) / RFU CYB561 (11721691_x_at) / Fold change /veh CYB561 (11721691_x_at) / RFU ANKRD19P (11752326_a_at) / Fold change /veh ANKRD19P (11752326_a_at) / RFU OR2T12 /// OR2T33 /// OR2T8 (11738714_s_at) / Fold change /veh OR2T12 /// OR2T33 /// OR2T8 (11738714_s_at) / RFU VCAN (11748164_a_at) / Fold change /veh VCAN (11748164_a_at) / RFU JSRP1 (11732532_at) / Fold change /veh JSRP1 (11732532_at) / RFU KRTAP10-11 (11738290_x_at) / Fold change /veh KRTAP10-11 (11738290_x_at) / RFU MYO3A (11730013_a_at) / Fold change /veh MYO3A (11730013_a_at) / RFU EBF3 (11725865_a_at) / Fold change /veh EBF3 (11725865_a_at) / RFU CAMK2N1 (11719241_x_at) / Fold change /veh CAMK2N1 (11719241_x_at) / RFU C5orf56 (11738088_a_at) / Fold change /veh C5orf56 (11738088_a_at) / RFU OLFML3 (11715873_a_at) / Fold change /veh OLFML3 (11715873_a_at) / RFU LOC100653217 /// NTM (11731650_a_at) / Fold change /veh LOC100653217 /// NTM (11731650_a_at) / RFU MAPK11 (11762145_a_at) / Fold change /veh MAPK11 (11762145_a_at) / RFU FIZ1 (11724087_x_at) / Fold change /veh FIZ1 (11724087_x_at) / RFU OASL (11726364_x_at) / Fold change /veh OASL (11726364_x_at) / RFU SOX15 (11748057_x_at) / Fold change /veh SOX15 (11748057_x_at) / RFU CD79A (11719716_a_at) / Fold change /veh CD79A (11719716_a_at) / RFU HIST1H1D (11736915_at) / Fold change /veh HIST1H1D (11736915_at) / RFU CASKIN2 (11723855_a_at) / Fold change /veh CASKIN2 (11723855_a_at) / RFU LOC730098 (11760151_x_at) / Fold change /veh LOC730098 (11760151_x_at) / RFU OR4N2 (11742367_at) / Fold change /veh OR4N2 (11742367_at) / RFU PRRT2 (11749266_a_at) / Fold change /veh PRRT2 (11749266_a_at) / RFU SNX32 (11753110_a_at) / Fold change /veh SNX32 (11753110_a_at) / RFU CDHR5 (11726645_a_at) / Fold change /veh CDHR5 (11726645_a_at) / RFU RCAN1 (11760418_a_at) / Fold change /veh RCAN1 (11760418_a_at) / RFU FAM167A (11723789_a_at) / Fold change /veh FAM167A (11723789_a_at) / RFU FAM26E (11764081_at) / Fold change /veh FAM26E (11764081_at) / RFU ISYNA1 (11749810_s_at) / Fold change /veh ISYNA1 (11749810_s_at) / RFU ACY1 (11761880_at) / Fold change /veh ACY1 (11761880_at) / RFU 11764098_at / Fold change /veh 11764098_at / RFU SAMD14 (11745864_x_at) / Fold change /veh SAMD14 (11745864_x_at) / RFU NPB (11741838_a_at) / Fold change /veh NPB (11741838_a_at) / RFU TMPRSS6 (11731388_a_at) / Fold change /veh TMPRSS6 (11731388_a_at) / RFU KRTAP10-2 (11738614_at) / Fold change /veh KRTAP10-2 (11738614_at) / RFU ARHGAP8 /// PRR5-ARHGAP8 (11727945_x_at) / Fold change /veh ARHGAP8 /// PRR5-ARHGAP8 (11727945_x_at) / RFU KRTAP5-7 /// NADSYN1 (11734609_at) / Fold change /veh KRTAP5-7 /// NADSYN1 (11734609_at) / RFU RASL12 (11751679_a_at) / Fold change /veh RASL12 (11751679_a_at) / RFU CDKN2B (11736163_a_at) / Fold change /veh CDKN2B (11736163_a_at) / RFU PRF1 (11729649_at) / Fold change /veh PRF1 (11729649_at) / RFU, ZNF638 /// ZNF638-IT1 / Fold change vs veh, ZNF638 /// ZNF638-IT1 / RFU, PANK3 / Fold change vs veh, PANK3 / RFU, SH3YL1 / Fold change vs veh, SH3YL1 / RFU, ZEB2 / Fold change vs veh, ZEB2 / RFU, NRIP1 / Fold change vs veh, NRIP1 / RFU, PTTG1IP / Fold change vs veh, PTTG1IP / RFU, CAPN2 / Fold change vs veh, CAPN2 / RFU, MED14 / Fold change vs veh, MED14 / RFU, SNORA58 / Fold change vs veh, SNORA58 / RFU, C1orf63 / Fold change vs veh, C1orf63 / RFU, LRRFIP1 / Fold change vs veh, LRRFIP1 / RFU, NDUFAF7 / Fold change vs veh, NDUFAF7 / RFU, SLC12A2 / Fold change vs veh, SLC12A2 / RFU, IBTK / Fold change vs veh, IBTK / RFU, ESF1 / Fold change vs veh, ESF1 / Fold change vs veh, TMEM50B / RFU, TAOK1 / Fold change vs veh, TAOK1 / RFU, ACBD3 / Fold change vs veh, ACBD3 / RFU, TMA16 / Fold change vs veh, TMA16 / RFU, RWDD3 / Fold change vs veh, RWDD3 / RFU, BCAT1 / Fold change vs veh, BCAT1 / RFU, EDEM3 / Fold change vs veh, EDEM3 / RFU, TMEM33 / Fold change vs veh, TMEM33 / RFU, WDR75 / Fold change vs veh, WDR75 / RFU, AHCTF1 / Fold change vs veh, AHCTF1 / RFU, TFRC / Fold change vs veh, TFRC / RFU, ZDHHC17 / Fold change vs veh, ZDHHC17 / RFU, NOM1 / Fold change vs veh, NOM1 / RFU, ARL8B / Fold change vs veh, ARL8B / RFU, ZBTB11 / Fold change vs veh, ZBTB11 / RFU, TAMM41 / Fold change vs veh, TAMM41 / RFU, KIAA1704 /// LOC100996395 / Fold change vs veh, KIAA1704 /// LOC100996395 / RFU, ING1 / Fold change vs veh, ING1 / RFU, TRMT61B / Fold change vs veh, TRMT61B / RFU, FUBP3 / Fold change vs veh, FUBP3 / RFU, TP53 / Fold change vs veh, TP53 / RFU, TNKS2 / Fold change vs veh, TNKS2 / RFU, ZFP14 / Fold change vs veh, ZFP14 / RFU, ACTR2 / Fold change vs veh, ACTR2 / RFU, PPP3R1 / Fold change vs veh, PPP3R1 / RFU, PIK3R1 / Fold change vs veh, PIK3R1 / RFU, HNRNPA1 / Fold change vs veh, HNRNPA1 / RFU, RNF170 / Fold change vs veh, RNF170 / RFU, ZNF28 / Fold change vs veh, ZNF28 / RFU, RNGTT / Fold change vs veh, RNGTT / RFU, OGT / Fold change vs veh, OGT / RFU, BRD1 / Fold change vs veh, BRD1 / RFU, MARS / Fold change vs veh, MARS / RFU, ZNF655 / Fold change vs veh, ZNF655 / RFU, FAHD1 / Fold change vs veh, FAHD1 / RFU, BDP1 / Fold change vs veh, BDP1 / RFU, LRRCC1 / Fold change vs veh, LRRCC1 / RFU, ARID1A / Fold change vs veh, ARID1A / RFU, ZNF146 / Fold change vs veh, ZNF146 / RFU, ZNF330 / Fold change vs veh, ZNF330 / RFU, GPN3 / Fold change vs veh, GPN3 / RFU, C9orf123 / Fold change vs veh, C9orf123 / RFU, N4BP2L2 / Fold change vs veh, N4BP2L2 / RFU, ARFIP1 / Fold change vs veh, ARFIP1 / RFU, FAM179B / Fold change vs veh, FAM179B / RFU, BCL10 / Fold change vs veh, BCL10 / RFU, UHRF1BP1L / Fold change vs veh, UHRF1BP1L / RFU, BET1 / Fold change vs veh, BET1 / RFU, CNOT2 / Fold change vs veh, CNOT2 / RFU, ZNF268 / Fold change vs veh, ZNF268 / Fold change vs veh, ZNF507 / RFU, DGCR2 / Fold change vs veh, DGCR2 / RFU, WDSUB1 / Fold change vs veh, WDSUB1 / Fold change vs veh, HSP90B1 /// MIR3652 / RFU, ADSS / Fold change vs veh, ADSS / RFU, GK / Fold change vs veh, GK / RFU, ZNF148 / Fold change vs veh, ZNF148 / RFU, TAF9 / Fold change vs veh, TAF9 / RFU, SLC1A5 / Fold change vs veh, SLC1A5 / RFU, SLMO2 / Fold change vs veh, SLMO2 / RFU, ABCC4 / Fold change vs veh, ABCC4 / RFU, LOC101060439 /// RAP1B / Fold change vs veh, LOC101060439 /// RAP1B / RFU, RFX7 / Fold change vs veh, RFX7 / RFU, GTPBP10 / Fold change vs veh, GTPBP10 / RFU, CNEP1R1 / Fold change vs veh, CNEP1R1 / RFU, BIVM-ERCC5 /// ERCC5 / Fold change vs veh, BIVM-ERCC5 /// ERCC5 / RFU, ILF3 / Fold change vs veh, ILF3 / RFU 11762660_at / Fold change /veh 11762660_at / RFU VCAN (11757783_s_at) / Fold change /veh VCAN (11757783_s_at) / RFU DDX43 (11728927_at) / Fold change /veh DDX43 (11728927_at) / RFU KRT8 (11758188_x_at) / Fold change /veh KRT8 (11758188_x_at) / RFU NKD1 (11759106_at) / Fold change /veh NKD1 (11759106_at) / RFU SRD5A1 (11742802_a_at) / Fold change /veh SRD5A1 (11742802_a_at) / RFU TPSAB1 /// TPSB2 (11721975_s_at) / Fold change /veh TPSAB1 /// TPSB2 (11721975_s_at) / RFU GSTM3 (11746129_a_at) / Fold change /veh GSTM3 (11746129_a_at) / RFU IL23R (11737362_x_at) / Fold change /veh IL23R (11737362_x_at) / RFU TMEM51 (11727254_a_at) / Fold change /veh TMEM51 (11727254_a_at) / RFU PIWIL2 (11732686_x_at) / Fold change /veh PIWIL2 (11732686_x_at) / RFU ORM1 (11744905_x_at) / Fold change /veh ORM1 (11744905_x_at) / RFU CCDC152 (11743942_at) / Fold change /veh CCDC152 (11743942_at) / RFU ECM1 (11717891_a_at) / Fold change /veh ECM1 (11717891_a_at) / RFU IL23R (11748794_a_at) / Fold change /veh IL23R (11748794_a_at) / RFU TNFAIP8L3 (11732012_x_at) / Fold change /veh TNFAIP8L3 (11732012_x_at) / RFU MBOAT4 (11741988_at) / Fold change /veh MBOAT4 (11741988_at) / RFU 11764193_at / Fold change /veh 11764193_at / RFU TMEM53 (11763286_at) / Fold change /veh TMEM53 (11763286_at) / RFU MAGEB2 (11727129_at) / Fold change /veh MAGEB2 (11727129_at) / RFU TMEM200A (11744735_a_at) / Fold change /veh TMEM200A (11744735_a_at) / RFU CCDC152 (11751479_a_at) / Fold change /veh CCDC152 (11751479_a_at) / RFU FAM211A (11726209_a_at) / Fold change /veh FAM211A (11726209_a_at) / RFU RGS16 (11746705_a_at) / Fold change /veh RGS16 (11746705_a_at) / RFU VCAN (11755009_s_at) / Fold change /veh VCAN (11755009_s_at) / RFU RHOB (11743442_s_at) / Fold change /veh RHOB (11743442_s_at) / RFU RGS16 (11720943_a_at) / Fold change /veh RGS16 (11720943_a_at) / RFU RGS16 (11720944_at) / Fold change /veh RGS16 (11720944_at) / RFU, VPS4B / Fold change vs veh, VPS4B / RFU, CREB1 / Fold change vs veh, CREB1 / RFU, DNAJC13 / Fold change vs veh, DNAJC13 / RFU, GNAQ / Fold change vs veh, GNAQ / RFU, CDK5R1 / Fold change vs veh, CDK5R1 / RFU, ZRANB3 / Fold change vs veh, ZRANB3 / RFU, CUL4A / Fold change vs veh, CUL4A / RFU, CCNY / Fold change vs veh, CCNY / RFU, UFL1 / Fold change vs veh, UFL1 / RFU, COG3 / Fold change vs veh, COG3 / RFU, DIAPH2 / Fold change vs veh, DIAPH2 / RFU, SKA2 / Fold change vs veh, SKA2 / RFU, AFF3 / Fold change vs veh, AFF3 / RFU, LMF1 / Fold change vs veh, LMF1 / RFU, IPO11 / Fold change vs veh, IPO11 / RFU, DFFB / Fold change vs veh, DFFB / RFU, FOXP1 / Fold change vs veh, FOXP1 / RFU, CARD8 / Fold change vs veh, CARD8 / RFU, STRN3 / Fold change vs veh, STRN3 / RFU, ADK / Fold change vs veh, ADK / RFU, RASSF2 / Fold change vs veh, RASSF2 / RFU, WIPF1 / Fold change vs veh, WIPF1 / RFU, LARP1B / Fold change vs veh, LARP1B / RFU, RASA1 / Fold change vs veh, RASA1 / RFU, RB1 / Fold change vs veh, RB1 / RFU, PPFIA1 / Fold change vs veh, PPFIA1 / RFU, MAT2A / Fold change vs veh, MAT2A / RFU, CCT5 / Fold change vs veh, CCT5 / RFU, WDR92 / Fold change vs veh, WDR92 / RFU, CUX1 / Fold change vs veh, CUX1 / RFU, TTC7A / Fold change vs veh, TTC7A / RFU, TMEM135 / Fold change vs veh, TMEM135 / RFU, DEPTOR / Fold change vs veh, DEPTOR / RFU, CPM / Fold change vs veh, CPM / RFU, DNAJB6 / Fold change vs veh, DNAJB6 / RFU, CACNA2D3 / Fold change vs veh, CACNA2D3 / RFU, DTX4 / Fold change vs veh, DTX4 / RFU, TFCP2 / Fold change vs veh, TFCP2 / RFU, GMCL1 /// GMCL1P1 / Fold change vs veh, GMCL1 /// GMCL1P1 / RFU, AEBP2 / Fold change vs veh, AEBP2 / RFU, SNHG1 /// SNORD22 /// SNORD25 /// SNORD26 /// SNORD27 /// SNORD28 /// SNORD29 /// SNORD31 / Fold change vs veh, SNHG1 /// SNORD22 /// SNORD25 /// SNORD26 /// SNORD27 /// SNORD28 /// SNORD29 /// SNORD31 / Fold change (Aza/veh), C12orf56 (ProbeSet 11735607_a_at) / Fold change (ACY-1035/veh), C12orf56 (ProbeSet 11735607_a_at) / Fold change (Aza/veh), FGFR1OP (ProbeSet 11751329_s_at) / Fold change (ACY-1035/veh), FGFR1OP (ProbeSet 11751329_s_at) / Fold change (Aza/veh), VPS36 (ProbeSet 11739960_a_at) / Fold change (ACY-1035/veh), VPS36 (ProbeSet 11739960_a_at) / RFU SYPL1 (11715823_x_at) / Fold change /veh SYPL1 (11715823_x_at) / RFU IGFBP7 (11715501_s_at) / Fold change /veh IGFBP7 (11715501_s_at) / RFU REEP3 (11722064_at) / Fold change /veh REEP3 (11722064_at) / RFU IGLL1 (11728026_x_at) / Fold change /veh IGLL1 (11728026_x_at): dose or concentration left out as unconfirmed
Settings: MV-4-11 cells, 48 hours

Question: How did the “Fold change /veh FAM167A (11723789_a_at)” value turn out when `Nc1ccc(-c2cccs2)cc1NC(=O)c1ccc2c(c1)cc(C1CC1)n2CCN1CCOCC1` [ACY-1035] was run?
Answer: Its value is 1.14.
